We go through 26 molecules from ChEMBL document CHEMBL5233273, “An overview of hydroxypyranone and hydroxypyridinone as privileged scaffolds for novel drug discovery” (Eur J Med Chem, 2021).

Experiment [1] relates to Bacillus subtilis. As to the kind of experiment: Antibacterial activity against Bacillus subtilis. The format is functional.
In experiment [2] the test system is Staphylococcus aureus. Put plainly: Antibacterial activity against Staphylococcus aureus. Format: functional.
The subject of a further experiment is Escherichia coli. As to the kind of experiment: Antibacterial activity against Escherichia coli. The format is functional.
The test system of the next experiment is Pseudomonas aeruginosa. Put plainly: Antibacterial activity against Pseudomonas aeruginosa. Format: functional.
The next experiment concerns Candida albicans. Put plainly: Antifungal activity against Candida albicans ATCC 90028. The format is functional.
In experiment [3] the test system is Bacillus subtilis. Put plainly: Antibacterial activity against Bacillus subtilis assessed as zone of inhibition. Format: functional.
Experiment [4] concerns Staphylococcus aureus. As to the kind of experiment: Antibacterial activity against Staphylococcus aureus assessed as zone of inhibition. Format: functional.
In the next experiment the target is Histamine H3 receptor (Homo sapiens, UniProt Q9Y5N1). Put plainly: Binding affinity to human H3R expressed in HEK293 cells membrane. Format: cell membranes.
Chain of Histamine H3 receptor (Q9Y5N1 whole entry): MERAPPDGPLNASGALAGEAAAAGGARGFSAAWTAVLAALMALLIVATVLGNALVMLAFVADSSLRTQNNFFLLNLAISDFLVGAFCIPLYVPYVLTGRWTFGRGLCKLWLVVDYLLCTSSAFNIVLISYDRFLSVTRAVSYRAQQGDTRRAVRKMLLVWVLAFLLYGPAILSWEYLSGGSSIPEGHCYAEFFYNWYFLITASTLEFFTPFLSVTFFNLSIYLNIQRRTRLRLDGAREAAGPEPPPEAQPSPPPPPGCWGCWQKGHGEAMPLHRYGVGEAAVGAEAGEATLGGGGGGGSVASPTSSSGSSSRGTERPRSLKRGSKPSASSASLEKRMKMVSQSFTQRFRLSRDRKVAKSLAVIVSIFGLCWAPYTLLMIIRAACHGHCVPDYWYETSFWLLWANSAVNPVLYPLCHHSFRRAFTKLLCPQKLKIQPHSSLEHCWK
For another experiment, the system named is Hepatitis C virus. Put plainly: Antiviral activity against HCV. The format is functional, organism-based, Hepacivirus hominis.
In experiment [5] the target is T1, Tyrosinase (Agaricus bisporus, UniProt O42713).
T1 sequence (O42713 whole entry): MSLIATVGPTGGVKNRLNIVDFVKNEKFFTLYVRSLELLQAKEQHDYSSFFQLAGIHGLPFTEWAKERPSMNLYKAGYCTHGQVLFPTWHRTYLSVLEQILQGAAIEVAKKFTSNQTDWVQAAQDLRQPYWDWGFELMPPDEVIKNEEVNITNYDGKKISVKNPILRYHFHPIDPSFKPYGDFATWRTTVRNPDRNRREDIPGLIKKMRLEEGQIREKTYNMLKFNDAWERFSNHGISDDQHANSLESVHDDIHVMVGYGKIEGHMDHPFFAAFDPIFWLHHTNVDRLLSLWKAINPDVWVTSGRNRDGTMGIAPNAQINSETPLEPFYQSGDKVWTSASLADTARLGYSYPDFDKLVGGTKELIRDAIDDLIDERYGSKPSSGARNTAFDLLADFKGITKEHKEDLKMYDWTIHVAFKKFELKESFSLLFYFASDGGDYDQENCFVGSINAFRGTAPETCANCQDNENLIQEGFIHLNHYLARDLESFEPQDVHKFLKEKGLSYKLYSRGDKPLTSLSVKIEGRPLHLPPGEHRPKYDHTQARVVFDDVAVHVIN
Put plainly: Inhibition of mushroom tyrosinase.

Experiment [6] addresses T2, Tyrosinase (Agaricus bisporus) (UniProt O42713).
T2 sequence (whole entry): T1 sequence (O42713 whole entry)
Put plainly: Potency index, ratio of kojic acid IC50 to test compound IC50 for inhibition of mushroom tyrosinase.

The target of the next experiment is DNA gyrase (Escherichia coli, UniProt P0AES4+P0AES6). Put plainly: Inhibition of Escherichia coli DNA gyrase. Format: protein-complex assay.
The target in experiment [7] is T1, Tyrosinase. Put plainly: Inhibition of mushroom tyrosinase diphenolase activity.
Experiment [8] deals with T2, Tyrosinase (Agaricus bisporus). As to the kind of experiment: Inhibition of mushroom tyrosinase monophenolase activity.
Experiment [9] can be described thus: Inhibition of TBHP induced lipid peroxidation in human HaCaT cells. Format: functional.
Experiment [10] has as its system Mycobacterium tuberculosis. As to the kind of experiment: Antitubercular activity against Mycobacterium tuberculosis H37Rv ATCC 27294. Format: functional.
A further experiment relates to Mycobacterium avium. Put plainly: Antitubercular activity against Mycobacterium avium ATCC 15769. The format is functional.
The next experiment relates to HepG2. Put plainly: Cytotoxicity against human HepG2 cells. Format: functional, cell-based.
The next experiment has as its system Aspergillus niger. As to the kind of experiment: Antifungal activity against Aspergillus niger. Format: functional.
For the next experiment, the system named is Saccharomyces cerevisiae. As to the kind of experiment: Antifungal activity against Saccharomyces cerevisiae. Format: functional.
The subject of a further experiment is A549. Put plainly: Cytotoxicity against human A549 cells. The format is functional, cell-based.
In the next experiment the test system is DU-145. As to the kind of experiment: Cytotoxicity against human DU-145 cells. The format is functional, cell-based.
The next experiment has as its system HeLa. Put plainly: Cytotoxicity against human HeLa cells. Format: functional, cell-based.
The next experiment relates to MCF7. As to the kind of experiment: Cytotoxicity against human MCF7 cells. Format: functional, cell-based.
The test system of the next experiment is B16-F10. As to the kind of experiment: Inhibition of tyrosinase in mouse B16-F10 cells assessed as inhibition of melanin production at 10 ug/ml relative to control. Format: cell-based. The note with it: dose 10.0 µg/ml.

Molecules are shown by their SMILES. Values after ≈ are worked out from the molar mass of the structure shown.

In the case of `CCCC(=O)NC(CCCNC(=O)c1c(O)c(=O)ccn1C)(CCCNC(=O)c1c(O)c(=O)ccn1C)CCCNC(=O)c1c(O)c(=O)ccn1C`, the MIC in the experiment with Bacillus subtilis [1] came out at 8 µg/mL (≈ 11 µM); in the experiment with Staphylococcus aureus [2], 8 µg/mL (≈ 11 µM); in the experiment on Escherichia coli, 8 µg/mL (≈ 11 µM); against Pseudomonas aeruginosa it was 16 µg/mL (≈ 22 µM).

Turning to `Cc1cc(=O)c(O)c(CN2CCN(c3ccccc3Cl)CC2)o1`, the MIC with Candida albicans turned out to be 64 µg/mL (≈ 191 µM).

`N#CC(C(=O)c1c[nH]c2ccccc12)C(c1ccc(Cl)cc1)c1oc(CO)cc(=O)c1O` (stereo unspecified): the “inhibition zone (IZ)” value with Bacillus subtilis [3] stood at 19.5 mm; with Staphylococcus aureus [4] it was 22 mm.

`O=c1cc(CN(Cc2ccc(OCCCN3CCCCC3)cc2)Cc2cc(=O)c(O)co2)occ1O` had a Ki on Histamine H3 receptor of 0.01 µM.

As for `COc1ccc(C(=O)OCc2cc(=O)c(O)co2)cc1`, the EC50 in the experiment on Hepatitis C virus came to 2.55 µM. This molecule also had a half-inhibitory concentration (IC50) against Tyrosinase [5] of 20 µM.

`CC(=O)c1ccc(N2CCN(Cc3oc(C)cc(=O)c3O)CC2)cc1` had an MIC against Candida albicans of 64 µg/mL (≈ 187 µM).

For the molecule `O=C(/C=C/c1ccc(C(=O)OCc2cc(=O)c(O)co2)cc1)c1ccccc1`, in the experiment with Staphylococcus aureus [4], the “inhibition zone (IZ)” value stood at 8 mm.

For the molecule `O=c1cc(CO)oc(CN2CCN(Cc3ccc(Cl)c(Cl)c3)CC2)c1O`, in [6], the Ratio IC50 was found to be 5. For the same molecule, 86.2 µM corresponded to half-maximal inhibition against Tyrosinase [5] (IC50).

`Cc1cc(=O)c(O)c(CN2CCN(c3ccc(Cl)cc3)CC2)o1` showed an MIC against Candida albicans of 64 µg/mL (≈ 191 µM).

On to `O=C(N[C@H]1CCc2nc(NCc3cc(=O)c(O)co3)sc2C1)c1cc(Br)c(Br)[nH]1`, for which it took 0.18 µM to reach half-maximal inhibition against DNA gyrase (IC50).

In the experiment on Candida albicans, `Cc1cc(=O)c(O)c(CN2CCN(c3ccccc3)CC2)o1` registered an MIC of 64 µg/mL (≈ 213 µM).

In the case of `O=c1cc(Cn2cc(COc3ccc4ccccc4c3)nn2)occ1O`, the Ratio IC50 in experiment [6] is 155. Further, on Tyrosinase [5], the IC50 is 0.06 µM.

`Cc1cc(=O)c(O)c(CN2CCN(c3ccc(F)cc3)CC2)o1` gave an MIC against Candida albicans of 64 µg/mL (≈ 201 µM).

Molecule `CCCCCCn1cc(O)c(=O)cc1/C=N/OCC` showed an IC50 at Tyrosinase [7] of 13.9 µM. Further, the IC5 in [8] is 2.04 µM.

On to `O=C(/C=C/c1ccc2c(c1)OCO2)OCc1cc(=O)c(O)co1`, for which the “inhibition (INH)” value in [9] worked out at 47%. The same molecule came in with an IC50 against Tyrosinase [5] of 1.4 µM.

With `O=C(C1CCCCC1)N1CCN(Cc2oc(CCl)cc(=O)c2O)CC1`, the MIC (in experiment [10]; in the experiment on Mycobacterium avium) was 4 µg/mL (≈ 10.8 µM) in each case.

Molecule `O=c1cc(CN2CCCC2)oc(CN2CCN(Cc3ccc(Br)c(F)c3)CC2)c1O` showed an IC50 in the experiment on HepG2 of 32.7 µM.

For the molecule `CO[C@@H]1O[C@H](COCc2cc(=O)c(O)co2)[C@@H](C)[C@H](OCc2cc(=O)c(O)co2)[C@H]1N`, the MIC with Aspergillus niger, against Saccharomyces cerevisiae, against Staphylococcus aureus [2] and against Escherichia coli was 1040 µg/mL (≈ 2370 µM) each time.

In the case of `CC(C)(C)[Si](C)(C)OCc1cc(=O)c(O)c(C(C[N+](=O)[O-])c2cccc(Cl)c2)o1` (stereo unspecified), the IC50 with A549 was found to be 9 µM; in the experiment on DU-145 it was 14 µM; in the experiment with HeLa, 10 µM.

Take `O=C(/C=C/c1ccc(C(=O)OCc2cc(=O)c(O)co2)cc1)c1ccc(Br)cc1`: the “inhibition zone (IZ)” value in the experiment on Staphylococcus aureus [4] is given as 8 mm.

With `CC(C)(C)[Si](C)(C)OCc1cc(=O)c(O)c(C(C[N+](=O)[O-])c2ccc(Cl)cc2)o1` (stereo unspecified), the IC50 turned out to be 18 µM in the experiment on A549, 16 µM with DU-145, 18 µM with MCF7 and 11 µM with HeLa.

`CC(C)(C)[Si](C)(C)OCc1cc(=O)c(O)c(C(C[N+](=O)[O-])c2ccc(Br)cc2)o1` (stereo unspecified): the IC50 in the experiment with A549 came to 8 µM; in the experiment on DU-145 it was 13 µM.

In turn, `O=c1cc(CNCc2ccc(OCCCN3CCCCC3)cc2)occ1O` gave a Ki at Histamine H3 receptor of 0.0316 µM. In other words, the double-digit nanomolar range.

As for `O=c1cc(Cn2cc(COc3cccc4ccccc34)nn2)occ1O`, the Ratio IC50 in [6] was 31. The same molecule registered an IC50 at Tyrosinase [5] of 0.06 µM.

`Cc1[nH]c(C(=O)N[C@H]2CCc3nc(NC(=O)[C@H](C)NC(=O)c4cc(=O)c(O)c[nH]4)sc3C2)c(Cl)c1Cl` had an IC50 against DNA gyrase of 0.26 µM.

As to `O=C(/C=C/c1cc(=O)c(O)co1)OCCCOCCCOC(=O)/C=C/c1cc(=O)c(O)co1`, in the experiment with B16-F10, the inhibition was determined as 22.4%.
